Test results: ChEMBL document CHEMBL3882724 (2013)

What was measured:
[1] = biological target: T1, Steroid 17-alpha-hydroxylase/17,20 lyase (Homo sapiens, UniProt P05093); assay: Inhibition of CYP17 in human testicular microsomes using 17alpha-hydroxypregnenolone as substrate assessed as decrease in DHEA levels at 10 nM after 90 mins by ELISA relative to control; set-up: species or system Testis; settings: 1.5 h
T1 sequence (P05093 whole entry): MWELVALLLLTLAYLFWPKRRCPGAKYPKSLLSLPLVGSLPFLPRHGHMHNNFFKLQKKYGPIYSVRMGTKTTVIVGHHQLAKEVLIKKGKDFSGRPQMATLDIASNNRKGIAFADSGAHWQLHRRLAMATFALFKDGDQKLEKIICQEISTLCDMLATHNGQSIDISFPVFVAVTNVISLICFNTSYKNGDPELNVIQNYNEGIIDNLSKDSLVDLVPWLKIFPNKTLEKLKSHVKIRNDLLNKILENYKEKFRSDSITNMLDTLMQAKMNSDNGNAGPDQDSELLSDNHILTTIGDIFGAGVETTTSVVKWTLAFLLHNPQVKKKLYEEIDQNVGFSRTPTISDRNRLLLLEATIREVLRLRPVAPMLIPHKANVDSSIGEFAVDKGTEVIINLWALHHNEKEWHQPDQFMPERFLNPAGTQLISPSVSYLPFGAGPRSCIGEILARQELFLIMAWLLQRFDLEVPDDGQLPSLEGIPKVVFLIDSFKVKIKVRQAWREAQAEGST

[2] = biological target: T1, Steroid 17-alpha-hydroxylase/17,20 lyase; assay: Inhibition of CYP17 in human testicular microsomes using 17alpha-hydroxypregnenolone as substrate assessed as decrease in DHEA levels after 90 mins by ELISA; set-up: species or system Testis
[3] = Half life in human liver microsomes at 1 uM by LC-MS/MS analysis
[4] = biological target: T2, CYP21 (steroid 21-hydroxylase) (Homo sapiens, UniProt P08686); assay: Inhibition of human CYP21 transfected in HEK293 cells assessed as decrease in conversion of progesterone to 11-deoxycorticosterone preincubated for 5 hrs followed by progesterone addition measured after 20 hrs by ELISA; format: cell-based; set-up: concentration or dose not given beside the values; settings: HEK293 cells transfected with human CYP21, probe progesterone
T2 sequence (P08686 whole entry): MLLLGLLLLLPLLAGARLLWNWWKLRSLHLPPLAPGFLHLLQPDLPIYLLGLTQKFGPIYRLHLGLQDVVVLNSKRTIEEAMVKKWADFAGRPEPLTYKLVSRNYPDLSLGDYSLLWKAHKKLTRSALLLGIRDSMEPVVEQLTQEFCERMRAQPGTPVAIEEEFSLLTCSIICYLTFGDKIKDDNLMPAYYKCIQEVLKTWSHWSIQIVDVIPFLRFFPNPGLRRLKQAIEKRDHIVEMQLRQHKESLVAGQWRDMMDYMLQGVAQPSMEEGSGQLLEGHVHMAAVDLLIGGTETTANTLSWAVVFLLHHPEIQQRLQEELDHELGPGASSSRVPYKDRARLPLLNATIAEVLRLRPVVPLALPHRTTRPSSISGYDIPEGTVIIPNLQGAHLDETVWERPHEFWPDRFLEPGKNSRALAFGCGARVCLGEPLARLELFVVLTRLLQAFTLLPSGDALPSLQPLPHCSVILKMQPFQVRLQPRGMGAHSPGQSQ

| SMILES | inhibition at 0.01 µM [1] [%] | other results |
| --- | --- | --- |
| C[C@]12CC[C@H]3[C@@H](CCN4CCCCC[C@]34C)[C@@H]1CC=C2c1cccnc1 | 1 to 50 | – |
| C[C@]12CCCCC[C@@H]1CC[C@@H]1[C@@H]2CC[C@]2(C)C(c3cnccc3Cl)=CC[C@@H]12 | 1 to 50 | – |
| C[C@]12CCC(=O)NC[C@@H]1CC[C@@H]1[C@@H]2CC[C@]2(C)C(n3ccnn3)=CC[C@@H]12 | 1 to 50 | – |
| C[C@]12CCNCC[C@@H]1CC[C@@H]1[C@@H]2CC[C@]2(C)C(n3ccnn3)=CC[C@@H]12 | 1 to 50 | – |
| COc1cncc(C2=CC[C@H]3[C@@H]4CCC5=CC(=O)NCC[C@]5(C)[C@H]4CC[C@]23C)c1 | 50 to 80 | IC50 [2]: ≤ 11 nM |
| COC1CC[C@@]2(C)[C@@H](CC[C@@H]3[C@@H]2CC[C@]2(C)C(c4cccnc4)=CC[C@@H]32)C1 (stereo partly specified) | 1 to 50 | – |
| CCCOc1cncc(C2=CC[C@H]3[C@@H]4CCC5=CC(=O)N(C)CC[C@]5(C)[C@H]4CC[C@]23C)c1 | 50 to 80 | – |
| C[C@]12CC[C@H]3[C@@H](CCC4=CC(=O)NCC[C@@]43C)C1=CC=C2c1cccnc1 | 50 to 80 | IC50 [2]: ≤ 11 nM |
| COc1cncc(C2=CC[C@H]3[C@@H]4CC=C5CCCC[C@]5(C)[C@H]4CC[C@]23C)c1 | 50 to 80 | – |
| C[C@]12CCCNC[C@@H]1CC[C@@H]1[C@@H]2CC[C@]2(C)C(n3ccnn3)=CC[C@@H]12 | 1 to 50 | – |
| COc1cncc(C2=CC[C@H]3[C@@H]4CCC5=CCN(C)CC[C@]5(C)[C@H]4CC[C@]23C)c1 | 1 to 50 | – |
| CCOc1cncc(C2=CC[C@H]3[C@@H]4CCC5N(C)C(=O)COC[C@]5(C)[C@H]4CC[C@]23C)c1 (stereo partly specified) | 1 to 50 | – |
| Cc1cncc(C2=CC[C@H]3[C@@H]4CCC5N(C)C(=O)COC[C@]5(C)[C@H]4CC[C@]23C)c1 (stereo partly specified) | 1 to 50 | – |
| COc1cncc(C2=CC[C@H]3[C@@H]4CC[C@H]5CCCCC[C@]5(C)[C@H]4CC[C@]23C)c1 | 50 to 80 | – |
| C[C@]12CC[C@H]3[C@@H](CC[C@H]4CC(=O)NCC[C@@]43C)C1=CC=C2n1ccnn1 | 1 to 50 | – |
| CCCOc1cncc(C2=CC[C@H]3[C@@H]4CCC5=CCN(C)CC[C@]5(C)[C@H]4CC[C@]23C)c1 | 1 to 50 | – |
| C[C@]12CC[C@H](O)C[C@@H]1CC[C@@H]1[C@@H]2CC[C@]2(C)C(n3ccnn3)=CC[C@@H]12 | ≥ 80 | IC50 [2]: ≤ 11 nM |
| Cc1cncc(C2=CC[C@H]3[C@@H]4CCN5CCCCC[C@]5(C)[C@H]4CC[C@]23C)c1 | 1 to 50 | – |
| COc1cncc(C2=CC[C@H]3[C@@H]4CCN5CCCCC[C@]5(C)[C@H]4CC[C@]23C)c1 | 1 to 50 | – |
| CCc1cncc(C2=CC[C@H]3[C@@H]4CC=C5CCCC[C@]5(C)[C@H]4CC[C@]23C)c1 | 1 to 50 | – |
| C[C@]12CC[C@H]3[C@@H](CC[C@H]4CNC(=O)CC[C@@]43C)C1=CC=C2n1ccnc1 | 50 to 80 | – |
| COC1CC[C@@]2(C)[C@@H](CC[C@@H]3[C@@H]2CC[C@]2(C)C(n4ccnn4)=CC[C@@H]32)C1 (stereo partly specified) | 1 to 50 | – |
| COc1cncc(C2=CC=C3[C@@H]4CC=C5C[C@@H](OC(C)=O)CC[C@]5(C)[C@H]4CC[C@]23C)c1 | ≥ 80 | IC50 [2]: ≤ 11 nM |

| SMILES | inhibition at 0.01 µM [1] [%] | other results |
| --- | --- | --- |
| COC1CC[C@@]2(C)[C@@H](CC[C@@H]3[C@@H]2CC[C@]2(C)C(c4cncc(C)c4)=CC[C@@H]32)C1 (stereo partly specified) | 1 to 50 | – |
| C[C@]12CCCCC[C@@H]1CC[C@@H]1[C@@H]2CC[C@]2(C)C(c3cccnc3)=CC[C@@H]12 | 1 to 50 | – |
| CCc1cncc(C2=CC[C@H]3[C@@H]4CCC5=CCN(C)CC[C@]5(C)[C@H]4CC[C@]23C)c1 | 1 to 50 | – |
| C[C@]12CC[C@H]3[C@@H](CC[C@H]4CNC(=O)CC[C@@]43C)C1=CC=C2n1ccnn1 | 1 to 50 | – |
| CCc1cncc(C2=CC[C@H]3[C@@H]4CC[C@H]5CCCCC[C@]5(C)[C@H]4CC[C@]23C)c1 | 1 to 50 | – |
| CN1CC=C2CC[C@@H]3[C@H](CC[C@]4(C)C(c5cccnc5)=CC[C@@H]34)[C@@]2(C)CC1 | 1 to 50 | IC50 [2]: ≤ 11 nM |
| CCOc1cncc(C2=CC[C@H]3[C@@H]4CC[C@H]5CCOCC[C@]5(C)[C@H]4CC[C@]23C)c1 | 50 to 80 | – |
| CCOc1cncc(C2=CC[C@H]3[C@@H]4CC[C@H]5CCCCC[C@]5(C)[C@H]4CC[C@]23C)c1 | 1 to 50 | – |
| C[C@]12CC[C@H]3[C@@H](CC[C@H]4CNC(=O)CC[C@@]43C)C1=CC=C2c1cccnc1 | 50 to 80 | – |
| Cc1cncc(C2=CC[C@H]3[C@@H]4CCC5=CC(=O)N(C)CC[C@]5(C)[C@H]4CC[C@]23C)c1 | 50 to 80 | IC50 [2]: ≤ 11 nM |
| Cc1cncc(C2=CC[C@H]3[C@@H]4CC=C5CCCC[C@]5(C)[C@H]4CC[C@]23C)c1 | 50 to 80 | – |
| CC(=O)O[C@H]1CC[C@@]2(C)[C@@H](CC[C@H]3C4=CC=C(c5cccnc5)[C@@]4(C)CC[C@@H]32)C1 | ≥ 80 | – |
| Cc1ccncc1C1=CC[C@H]2[C@@H]3CC[C@H]4CCCCC[C@]4(C)[C@H]3CC[C@]12C | 1 to 50 | – |
| CCCOc1cncc(C2=CC[C@H]3[C@@H]4CCN5C(=O)CCCC[C@]5(C)[C@H]4CC[C@]23C)c1 | 50 to 80 | IC50 [2]: ≤ 11 nM |
| CN1CC[C@@]2(C)C(=CC1=O)CC[C@@H]1[C@@H]2CC[C@]2(C)C(n3cnc4ccccc43)=CC[C@@H]12 | 1 to 50 | – |
| CC(=O)O[C@H]1CC[C@@]2(C)[C@@H](CC[C@H]3C4=CC=C(n5ccnc5)[C@@]4(C)CC[C@@H]32)C1 | ≥ 80 | IC50 [2]: ≤ 11 nM |
| Cc1cncc(C2=CC[C@H]3[C@@H]4CCC5=CN(C)CCC[C@]5(C)[C@H]4CC[C@]23C)c1 | 1 to 50 | – |
| C[C@]12CC(=O)C[C@@H]1CC[C@@H]1[C@@H]2CC[C@]2(C)C(n3ccnn3)=CC[C@@H]12 | 1 to 50 | – |
| C[C@]12CCNC(=O)C=C1CC[C@@H]1[C@@H]2CC[C@]2(C)C(n3cnc4ccccc43)=CC[C@@H]12 | 1 to 50 | – |
| C[C@]12CCNC(=O)CC[C@@H]1CC[C@@H]1[C@@H]2CC[C@]2(C)C(c3cccnc3)=CC[C@@H]12 | 50 to 80 | – |
| Cc1cncc(C2=CC[C@H]3[C@@H]4CC[C@H]5CCCCC[C@]5(C)[C@H]4CC[C@]23C)c1 | 1 to 50 | – |
| C[C@]12CCC(=O)NC[C@@H]1CC[C@@H]1[C@@H]2CC[C@]2(C)C(n3ccnc3)=CC[C@@H]12 | 50 to 80 | – |
| C[C@]12CC[C@@H](NC(=O)C3CCC3)CC1=CC[C@@H]1[C@@H]2CC[C@]2(C)C(n3ccnc3)=CC[C@@H]12 | – | IC50 [2]: ≤ 11 nM; half-life at 1 µM [3]: 1 to 50 min; inhibition at 20 h [4]: ≥ 50% |
